Here are results for six compounds from patent US4710564A, “Anthracycline compounds” (Microbial Chemistry Research Foundation, priority 1985, dated 1987).

In brackets after ≈: the same amount, converted by molar mass. Where two headings read alike, the source gives them in different places. A value given as a limit tells only on which side of the number the result lay.

In one series the test system is P388 leukemia. The experiment in a line: Antitumor activity against P388 leukemia in mice, i.p. administration (T/C, therapeutic index). The series is classed as in vivo, CDF1 mice. Conditions: for ED (T/C 130%): Mus musculus, P388, ip, read-out: Dose for T/C = 130 %.
In series [1] the test system is P 388 leukemia. The experiment in a line: animal or person. The series is classed as in vivo, CDF1 mice. As to conditions: for ED (T/C 130%): Mus musculus, P388, iv, read-out: Dose for T/C = 130%.
In series [2] the test system is P 388 leukemia. The experiment in a line: animal or person. The format is in vivo, CDF1 mice. As to conditions: for ED (T/C 130%): Mus musculus, P388, po, read-out: Dose for T/C = 130%.
Series [3] relates to Adriamycin-resistant P 388 leukemia cells (P 388/ADR). The experiment in a line: cells. The series is classed as cell-based. Conditions: for IC50: Mus musculus, P388, 48 h, read-out: IC50 P388/ADR; for R/S: mouse, 2880 min.
The next series in a line: in vivo. Conditions: mouse, iv.
Another series deals with Lewis lung carcinoma. The experiment in a line: Tumor growth inhibition against solid tumors (Lewis lung carcinoma). As to conditions: for Tumor growth inhibition: i.v., days 1, 5 and 9, day 13.
The subject of series [4] is P 388 leukemia. As to conditions: known from the art; cited from earlier work.
The conditions of series [5]: comp. data from Japanese Patent Application Laid-Open Pub. No. 76896/1980; cited from earlier work.
Setting [6] is: mouse, in vivo, ip, 0.5 mg/kg/day.
Setting [7] is: mouse, in vivo, ip, 1 mg/kg/day.
[8] abbreviates: mouse, in vivo, ip, 2 mg/kg/day.
Where [9] appears, read: mouse, in vivo, ip, 4 mg/kg/day.
Setting [10] is: mouse, in vivo, iv, 1 mg/kg/day.
The mark [11] stands for this setting: mouse, in vivo, iv, 2 mg/kg/day.
[12] abbreviates: mouse, in vivo, iv, 4 mg/kg/day.
The mark [13] stands for this setting: mouse, in vivo, iv, 8 mg/kg/day.
Where [14] appears, read: mouse, in vivo, po, 1 mg/kg/day.
Where [15] appears, read: mouse, in vivo, po, 2 mg/kg/day.
Setting [16] is: mouse, in vivo, po, 4 mg/kg/day.
Setting [17] is: mouse, in vivo, ip, 8 mg/kg/day.
[18] abbreviates: mouse, in vivo, ip, 12 mg/kg/day.
Where [19] appears, read: mouse, in vivo, po, 8 mg/kg/day.
The mark [20] stands for this setting: mouse, in vivo, po, 16 mg/kg/day.
The mark [21] stands for this setting: mouse, in vivo, ip, 16 mg/kg/day.
The mark [22] stands for this setting: mouse, in vivo, iv, 16 mg/kg/day.
[23] abbreviates: mouse, in vivo, iv, 32 mg/kg/day.
[24] abbreviates: mouse, in vivo, po, 32 mg/kg/day.

Usually LD50 stands for the dose expected to kill half of the subjects tested. Consider `CCC1(O)CC(OC2CC(N3CCOCC3)C(O)C(C)O2)c2c(O)c3c(c(O)c2C1O)C(=O)c1cccc(O)c1C3=O` (stereo not shown) [3'-deamino-3'-(4-morpholinyl)-R20X2], for which the results for the ED (T/C 130%) in the series on P388 leukemia, in the series on P 388 leukemia [1] and in the series with P 388 leukemia [2] were 0.35 mg/kg/day, 0.43 mg/kg/day and 0.58 mg/kg/day, respectively. Besides, the Therapeutic index with P388 leukemia (mouse, in vivo, ip) is listed as 5.7; in the series on P 388 leukemia [1] (mouse, in vivo, iv) it was 4.7; in the series on P 388 leukemia [2] (mouse, in vivo, po), 3.4. Besides, the T/C in the series with P388 leukemia (mouse, in vivo, ip, 0.25 mg/kg/day) is 112; with P388 leukemia (setting [6]) it was 150; with P388 leukemia (setting [7]), 186; in the series with P388 leukemia (setting [8]), > 246; in the series with P388 leukemia (setting [9]) it was > 158; with P 388 leukemia [1] (mouse, in vivo, iv, 0.25 mg/kg/day), 109. Besides, the T/C came out at 136 in the series with P 388 leukemia [1] (mouse, in vivo, iv, 0.5 mg/kg/day); 154 in the series with P 388 leukemia [1] (setting [10]); 204 with P 388 leukemia [1] (setting [11]); 194 in the series on P 388 leukemia [1] (setting [12]); 35 in the series on P 388 leukemia [1] (setting [13]); 109 in the series with P 388 leukemia [2] (mouse, in vivo, po, 0.25 mg/kg/day). Also, the T/C in the series on P 388 leukemia [2] (mouse, in vivo, po, 0.5 mg/kg/day) is listed as 120; in the series on P 388 leukemia [2] (setting [14]) it was 164; in the series on P 388 leukemia [2] (setting [15]), 228; in the series with P 388 leukemia [2] (setting [16]) it was 103. In addition, the IC50 in series [3] amounted to 0.011 µg/mL (≈ 0.0188 µM). Further, in series [3], the R/S was 1.22. Besides, in the series with heart (dosage level T/C=max), the “toxicity to the heart at dosage level of maximum antitumor activity” value is given as “not found to be toxic”. For the same compound, in “in vivo”, the LD50 came out at 3.55 mg/kg. In addition, the “Solubility: insoluble” value in “Solubility” (insoluble in) was “insoluble in water, hexane, cyclohexane, diethyl ether, and petroleum ether”. Besides, the “Solubility: soluble” value in “Solubility” (soluble in) is “Soluble in acidic water, basic water, methanol, ethanol, propanol, acetone, ethyl acetate, and chloroform”.
In the case of `CCC1(O)Cc2c(O)c3c(c(O)c2C(OC2CC(N4CCOCC4)C(O)C(C)O2)C1)C(=O)c1c(O)cccc1C3=O` (stereo not shown) [3'-deamino-3'-(4-morpholinyl)-R20X], the ED (T/C 130%) was determined as 0.75 mg/kg/day with P388 leukemia, 2.5 mg/kg/day in the series on P 388 leukemia [1] and 1.45 mg/kg/day with P 388 leukemia [2]. For the same compound, the T/C in the series on P388 leukemia (setting [6]) was 104; in the series with P388 leukemia (setting [7]), 148; with P388 leukemia (setting [8]), 177; in the series on P388 leukemia (setting [9]), 218; in the series with P388 leukemia (setting [17]), > 303; in the series on P388 leukemia (setting [18]), 231. Moreover, the T/C in the series with P 388 leukemia [1] (setting [10]) came out at 104; in the series with P 388 leukemia [1] (setting [11]), 119; with P 388 leukemia [1] (setting [12]), 155; with P 388 leukemia [1] (setting [13]) it was 151; with P 388 leukemia [1] (mouse, in vivo, iv, 12 mg/kg/day), 57; with P 388 leukemia [2] (setting [14]) it was 111. Moreover, the T/C came out at 146 in the series on P 388 leukemia [2] (setting [15]), 170 in the series on P 388 leukemia [2] (setting [16]), 214 with P 388 leukemia [2] (setting [19]) and 219 in the series on P 388 leukemia [2] (setting [20]). Further, the “toxicity to the heart at dosage level of maximum antitumor activity” value in the series on heart (hamster, in vivo) is “not found to be toxic”. In addition, the LD50 in “in vivo” is 12.3 mg/kg.
For `CCC1(O)Cc2cc3c(c(O)c2C(OC2CC(N4CCOCC4)C(O)C(C)O2)C1)C(=O)c1c(O)cccc1C3=O` (stereo not shown) [3'-deamino-3'-(4-morpholinyl)-R20Y5], the ED (T/C 130%) in the series on P388 leukemia came out at 6.2 mg/kg/day; with P 388 leukemia [1], 4.9 mg/kg/day; with P 388 leukemia [2], 4.3 mg/kg/day. In addition, the “antitumor activity compared with R20Y5 (in words)” value in the series with P388 leukemia (comparison with R20Y5 of Japanese Laid-Open 76896/1980) is “antitumor activity of R20Y5 can be remarkably increased by 3'-deamino-3'-4-morpholinylation”. The T/C came to 104 in the series on P388 leukemia (setting [9]); 146 in the series on P388 leukemia (setting [17]); 175 in the series on P388 leukemia (setting [21]); 219 with P388 leukemia (mouse, in vivo, ip, 32 mg/kg/day); 93 in the series with P388 leukemia (mouse, in vivo, ip, 64 mg/kg/day); 104 in the series on P 388 leukemia [1] (setting [11]). Besides, the T/C was 123 in the series on P 388 leukemia [1] (setting [12]); 148 in the series on P 388 leukemia [1] (setting [13]); 182 in the series with P 388 leukemia [1] (setting [22]); > 240 in the series with P 388 leukemia [1] (setting [23]); 127 with P 388 leukemia [2] (setting [16]); 154 with P 388 leukemia [2] (setting [19]). For the same compound, the T/C is recorded as 191 in the series with P 388 leukemia [2] (setting [20]); 263 in the series on P 388 leukemia [2] (setting [24]); 238 in the series on P 388 leukemia [2] (mouse, in vivo, po, 64 mg/kg/day). In the series “in vivo”, this compound registered an LD50 of 65 mg/kg. The “antitumor activity against solid tumors (in words)” value with Lewis lung carcinoma (Lewis lung carcinoma) was “antitumor activity comparable to or better than that of Adriamycin against solid tumors”. In addition, the Tumor growth inhibition came out at 9.6% in the series with Lewis lung carcinoma (4 mg/kg/day), 31.0% in the series on Lewis lung carcinoma (8 mg/kg/day), 66.6% in the series on Lewis lung carcinoma (16 mg/kg/day) and 91.7% in the series on Lewis lung carcinoma (32 mg/kg/day).
As for `CC[C@@]1(O)C[C@H](O[C@H]2C[C@H](N(C)C)[C@H](O[C@H]3C[C@H](O)[C@H](O[C@H]4CCC(=O)[C@H](C)O4)[C@H](C)O3)[C@H](C)O2)c2c(cc3c(c2O)C(=O)c2c(O)cccc2C3=O)[C@H]1C(=O)OC` [Aclacinomycin, reference compound], the “Dose for T/C = 130%” value in the series on P388 leukemia (mouse, in vivo, ip) turned out to be 4.4 mg/kg/day; in the series on P 388 leukemia [1] (mouse, in vivo, iv), 12.4 mg/kg/day; with P 388 leukemia [2] (mouse, in vivo, po), 15 mg/kg/day. Further, the Therapeutic index amounted to 3.6 in the series with P388 leukemia (mouse, in vivo, ip); 2.6 in the series with P 388 leukemia [1] (mouse, in vivo, iv); 2.1 in the series with P 388 leukemia [2] (mouse, in vivo, po). For the same compound, the T/C came to 111 in the series with P388 leukemia (setting [8]); 126 in the series with P388 leukemia (setting [9]); 155 in the series with P388 leukemia (setting [17]); 182 in the series with P388 leukemia (setting [21]); 121 in the series on P 388 leukemia [1] (setting [12]); 119 in the series with P 388 leukemia [1] (setting [13]). Besides, the T/C in the series with P 388 leukemia [1] (setting [22]) is 151; in the series on P 388 leukemia [1] (setting [23]) it was 177; with P 388 leukemia [1] (mouse, in vivo, iv, 64 mg/kg/day) it was 35; in the series on P 388 leukemia [2] (setting [19]), 119; in the series with P 388 leukemia [2] (setting [20]), 131; with P 388 leukemia [2] (setting [24]), 154. The “IC50 P388/ADR” value in [3] is 0.025 µg/mL (≈ 0.0308 µM). This compound also registered a R/S in series [3] of 1.92. Further, in the series on P 388 leukemia [4], the “effectiveness by oral administration (in words)” value is reported as “effective in the case of oral administration”.
Turning to `COc1cccc2c1C(=O)c1c(O)c3c(c(O)c1C2=O)C[C@@](O)(C(=O)CO)C[C@@H]3O[C@H]1C[C@H](N)[C@H](O)[C@H](C)O1` [Adriamycin, reference compound], the ED (T/C 130%) in the series with P388 leukemia was < 0.25 mg/kg/day. Besides, the T/C was 177 with P388 leukemia (setting [6]); 191 in the series on P388 leukemia (setting [7]); > 217 with P388 leukemia (setting [8]); 204 in the series with P388 leukemia (setting [9]); > 256 with P388 leukemia (setting [17]); 194 with P388 leukemia (setting [18]). The IC50 in series [3] is 0.35 µg/mL (≈ 0.644 µM). Further, the R/S in series [3] was 29.2. The Tumor growth inhibition amounted to 34.5% with Lewis lung carcinoma (1 mg/kg/day), 14.1% in the series with Lewis lung carcinoma (2 mg/kg/day), 64.2% in the series on Lewis lung carcinoma (4 mg/kg/day) and 72.8% in the series with Lewis lung carcinoma (8 mg/kg/day).
Regarding `CCC1(O)Cc2cc3c(c(O)c2C(OC2CC(N)C(O)C(C)O2)C1)C(=O)c1c(O)cccc1C3=O` (stereo not shown) [R20Y5, 11-deoxy-13-deoxocarminomycin], the LD50 in series [5] is 15 mg/kg.
